Where two headings read alike, the source gives them in different places.

From patent US9273058B2 (BRISTOL-MYERS SQUIBB COMPANY, priority 2013, dated 2016) come the findings set out here.

One test deals with CK1ε (Homo sapiens, UniProt P49674). Put plainly: CK1ε kinase assay (Caliper LabChip electrophoretic separation of fluoresceinated peptide substrate and product). The test is classed as biochemical. The following applies: 200 pM CK1ε, 50 μM ATP, 1.5 μM peptide, 22 hours at room temperature. In outline:
(§1)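 Kinase reactions ran 22 h at room temperature, were stopped with EDTA, and phosphorylated product was separated electrophoretically from unphosphorylated fluoresceinated peptide. Compounds were tested at eleven concentrations from 10 mM DMSO stocks. IC50 by non-linear regression.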

The next test deals with CK1δ (Homo sapiens, UniProt P48730). Put plainly: CK1δ kinase assay (Caliper LabChip electrophoretic separation of fluoresceinated peptide substrate and product). The test is classed as biochemical. The following applies: 200 pM CK1δ, 50 μM ATP, 1.5 μM peptide, 22 hours at room temperature. In outline:
as §1

Chain of CK1δ (P48730 whole entry): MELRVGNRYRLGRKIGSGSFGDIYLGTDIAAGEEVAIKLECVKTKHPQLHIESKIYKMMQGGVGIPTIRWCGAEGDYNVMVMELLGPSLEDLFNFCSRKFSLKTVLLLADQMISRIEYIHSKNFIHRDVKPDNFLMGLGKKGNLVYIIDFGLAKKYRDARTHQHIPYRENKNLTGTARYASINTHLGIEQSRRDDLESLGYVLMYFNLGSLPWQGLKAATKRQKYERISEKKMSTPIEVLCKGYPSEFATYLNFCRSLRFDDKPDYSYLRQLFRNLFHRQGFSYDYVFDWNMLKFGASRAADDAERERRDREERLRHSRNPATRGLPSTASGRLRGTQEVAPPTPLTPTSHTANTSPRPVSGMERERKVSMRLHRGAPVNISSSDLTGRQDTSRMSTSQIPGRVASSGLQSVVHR
Chain of CK1ε (P49674 whole entry): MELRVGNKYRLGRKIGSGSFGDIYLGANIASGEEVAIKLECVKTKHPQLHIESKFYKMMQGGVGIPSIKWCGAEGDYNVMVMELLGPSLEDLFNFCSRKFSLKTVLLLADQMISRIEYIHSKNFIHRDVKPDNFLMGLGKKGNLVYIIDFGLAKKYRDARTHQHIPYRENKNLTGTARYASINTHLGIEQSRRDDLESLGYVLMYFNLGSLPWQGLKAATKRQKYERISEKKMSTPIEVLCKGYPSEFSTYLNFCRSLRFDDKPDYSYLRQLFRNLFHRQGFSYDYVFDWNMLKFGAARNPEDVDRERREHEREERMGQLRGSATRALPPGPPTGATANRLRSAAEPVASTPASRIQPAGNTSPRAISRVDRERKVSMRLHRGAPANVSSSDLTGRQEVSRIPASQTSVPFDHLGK

On to `CC1(NC(=O)N2Cc3c(C(N)=O)c(-c4ccc(F)c(Cl)c4)nn3CC2C2CC2)CC(F)(F)C1` (single isomer, unassigned) [Compound 349, 2-(3-Chloro-4-fluorophenyl)-6-cyclopropyl-N^5-(3,3-difluoro-1-methylcyclobutyl)-6,7-dihydropyrazolo[1,5-a]pyrazine-3,5(4H)-dicarboxamide], for which the IC50 is 20.1 nM at CK1ε (read-out: CK1ε), 10 to 100 nM at CK1ε (read-out: CK1ε IC50 range), 34.2 nM at CK1δ (read-out: CK1δ) and 10 to 100 nM on CK1δ (read-out: CK1δ IC50 range).
As for `CC(C)(C)NC(=O)N1Cc2c(C(N)=O)c(-c3ccc(F)c(Cl)c3)nn2C(CCO)C1` (single isomer, unassigned) [Compound A96, N^5-(tert-Butyl)-2-(3-chloro-4-fluorophenyl)-7-(2-hydroxyethyl)-6,7-dihydropyrazolo[1,5-a]pyrazine-3,5(4H)-dicarboxamide], the IC50 at CK1ε (read-out: CK1ε IC50 range) and at CK1δ (read-out: CK1δ IC50 range) was 0.01 to 10 nM each time.
As to `COCCC1CN(C(=O)NC(C)(C)C)Cc2c(C(N)=O)c(-c3ccc(F)c(Cl)c3)nn21` (single isomer, unassigned) [Compound A100, N^5-(tert-Butyl)-2-(3-chloro-4-fluorophenyl)-7-(2-methoxyethyl)-6,7-dihydropyrazolo[1,5-a]pyrazine-3,5(4H)-dicarboxamide], the IC50 was 0.01 to 10 nM at CK1ε (read-out: CK1ε IC50 range) and 10 to 100 nM at CK1δ (read-out: CK1δ IC50 range).
Turning to `COCCC1CN(C(=O)NC(C)(C)C)Cc2c(C(N)=O)c(-c3ccc(F)c(Cl)c3)nn21` (single isomer, unassigned) [Compound A101, N^5-(tert-Butyl)-2-(3-chloro-4-fluorophenyl)-7-(2-methoxyethyl)-6,7-dihydropyrazolo[1,5-a]pyrazine-3,5(4H)-dicarboxamide], the IC50 at CK1ε (read-out: CK1ε IC50 range) and on CK1δ (read-out: CK1δ IC50 range) was 0.01 to 10 nM each time.
As to `CC(C)(C)NC(=O)N1Cc2c(C(N)=O)c(-c3ccc(F)c(Cl)c3)nn2C(CCF)C1` (single isomer, unassigned) [Compound A102, N^5-(tert-Butyl)-2-(3-chloro-4-fluorophenyl)-7-(2-fluoroethyl)-6,7-dihydropyrazolo[1,5-a]pyrazine-3,5(4H)-dicarboxamide], the IC50 on CK1ε (read-out: CK1ε IC50 range) and on CK1δ (read-out: CK1δ IC50 range) was 0.01 to 10 nM in each case.
On to `CC(C)(C)NC(=O)N1Cc2c(C(N)=O)c(-c3ccc(F)c(Cl)c3)nn2C(CCF)C1` (single isomer, unassigned) [Compound A103, N^5-(tert-Butyl)-2-(3-chloro-4-fluorophenyl)-7-(2-fluoroethyl)-6,7-dihydropyrazolo[1,5-a]pyrazine-3,5(4H)-dicarboxamide], for which the IC50 on CK1ε (read-out: CK1ε IC50 range) and at CK1δ (read-out: CK1δ IC50 range) was 0.01 to 10 nM in each case.
As for `CC(C)(C)NC(=O)N1Cc2c(C(N)=O)c(-c3cccc(F)c3)nn2C(CF)C1` (single isomer, unassigned) [Compound A106, N^5-(tert-Butyl)-7-(fluoromethyl)-2-(3-fluorophenyl)-6,7-dihydropyrazolo[1,5-a]pyrazine-3,5(4H)-dicarboxamide], the IC50 on CK1ε (read-out: CK1ε IC50 range) and on CK1δ (read-out: CK1δ IC50 range) was 100 to 2000 nM in each case.
`CC(C)(C)NC(=O)N1Cc2c(C(N)=O)c(-c3cccc(F)c3)nn2C(CF)C1` (single isomer, unassigned) [Compound A107, N^5-(tert-Butyl)-7-(fluoromethyl)-2-(3-fluorophenyl)-6,7-dihydropyrazolo[1,5-a]pyrazine-3,5(4H)-dicarboxamide]: the IC50 at CK1ε (read-out: CK1ε IC50 range) and on CK1δ (read-out: CK1δ IC50 range) was 0.01 to 10 nM throughout.
For the compound `CC1CN(C(=O)NC(C)(C)C)Cc2c(C(N)=O)c(-c3cccc(F)c3)nn21` (single isomer, unassigned) [Compound A108, N^5-(tert-Butyl)-2-(3-fluorophenyl)-7-methyl-6,7-dihydropyrazolo[1,5-a]pyrazine-3,5(4H)-dicarboxamide], the IC50 on CK1ε (read-out: CK1ε IC50 range) and on CK1δ (read-out: CK1δ IC50 range) was 10 to 100 nM each time.
For `CC1CN(C(=O)NC(C)(C)C)Cc2c(C(N)=O)c(-c3cccc(F)c3)nn21` (single isomer, unassigned) [Compound A109, N^5-(tert-Butyl)-2-(3-fluorophenyl)-7-methyl-6,7-dihydropyrazolo[1,5-a]pyrazine-3,5(4H)-dicarboxamide], the IC50 on CK1ε (read-out: CK1ε IC50 range) and at CK1δ (read-out: CK1δ IC50 range) was 0.01 to 10 nM in each case.
Regarding `CC1CN(C(=O)NC2CC(F)(F)C2)Cc2c(C(N)=O)c(-c3cccc(Cl)c3)nn21` (single isomer, unassigned) [Compound A110, 2-(3-Chlorophenyl)-N^5-(3,3-difluorocyclobutyl)-7-methyl-6,7-dihydropyrazolo[1,5-a]pyrazine-3,5(4H)-dicarboxamide], the IC50 at CK1ε (read-out: CK1ε IC50 range) and at CK1δ (read-out: CK1δ IC50 range) was 0.01 to 10 nM each time.
For the compound `CC1CN(C(=O)NC2CC(F)(F)C2)Cc2c(C(N)=O)c(-c3cccc(Cl)c3)nn21` (single isomer, unassigned) [Compound A111, 2-(3-Chlorophenyl)-N^5-(3,3-difluorocyclobutyl)-7-methyl-6,7-dihydropyrazolo[1,5-a]pyrazine-3,5(4H)-dicarboxamide], the IC50 on CK1ε (read-out: CK1ε IC50 range) and at CK1δ (read-out: CK1δ IC50 range) was 0.01 to 10 nM each time.
`NC(=O)c1c(-c2cccc(Cl)c2)nn2c1CN(C(=O)NC1CC(F)(F)C1)CC2CF` (single isomer, unassigned) [Compound A112, 2-(3-Chlorophenyl)-N^5-(3,3-difluorocyclobutyl)-7-(fluoromethyl)-6,7-dihydropyrazolo[1,5-a]pyrazine-3,5(4H)-dicarboxamide]: the IC50 at CK1ε (read-out: CK1ε IC50 range) and on CK1δ (read-out: CK1δ IC50 range) was 0.01 to 10 nM in each case.
On to `NC(=O)c1c(-c2cccc(Cl)c2)nn2c1CN(C(=O)NC1CC(F)(F)C1)CC2CF` (single isomer, unassigned) [Compound A113, 2-(3-Chlorophenyl)-N^5-(3,3-difluorocyclobutyl)-7-(fluoromethyl)-6,7-dihydropyrazolo[1,5-a]pyrazine-3,5(4H)-dicarboxamide], for which the IC50 at CK1ε (read-out: CK1ε IC50 range) and on CK1δ (read-out: CK1δ IC50 range) was 0.01 to 10 nM throughout.
On to `CC(C)(C)NC(=O)N1Cc2c(C(N)=O)c(-c3ccc(F)c(Cl)c3)nn2C(C(C)(C)C)C1` (single isomer, unassigned) [Compound A117, N^5-7-Di-tert-butyl-2-(3-chloro-4-fluorophenyl)-6,7-dihydropyrazolo[1,5-a]pyrazine-3,5(4H)-dicarboxamide], for which the IC50 lay within 10 to 100 nM at CK1ε (read-out: CK1ε IC50 range) and 100 to 2000 nM on CK1δ (read-out: CK1δ IC50 range).
For `CC(C)C1CN(C(=O)NC(C)(C)C)Cc2c(C(N)=O)c(-c3ccc(F)c(Cl)c3)nn21` (single isomer, unassigned) [Compound A119, N^5-(tert-Butyl)-2-(3-chloro-4-fluorophenyl)-7-isopropyl-6,7-dihydropyrazolo[1,5-a]pyrazine-3,5(4H)-dicarboxamide], in that order: 10 to 100 nM and 10 to 100 nM.
Taken in the same sequence, the figures for `CC(C)C1CN(C(=O)NC(C)(C)C)Cc2c(C(N)=O)c(-c3ccc(F)c(Cl)c3)nn21` (single isomer, unassigned) [Compound A120, N^5-(tert-Butyl)-2-(3-chloro-4-fluorophenyl)-7-isopropyl-6,7-dihydropyrazolo[1,5-a]pyrazine-3,5(4H)-dicarboxamide] were 0.01 to 10 nM and 0.01 to 10 nM.
For `CC(C)(C)C1CN(C(=O)NC2CC(F)(F)C2)Cc2c(C(N)=O)c(-c3ccc(F)c(Cl)c3)nn21` (single isomer, unassigned) [Compound A121, 7-(tert-Butyl)-2-(3-chloro-4-fluorophenyl)-N5-(3,3-difluorocyclobutyl)-6,7-dihydropyrazolo[1,5-a]pyrazine-3,5(4H)-dicarboxamide], in that order: 10 to 100 nM and 100 to 2000 nM.
`CC(C)(C)C1CN(C(=O)NC2CC(F)(F)C2)Cc2c(C(N)=O)c(-c3ccc(F)c(Cl)c3)nn21` (single isomer, unassigned) [Compound A122, 7-(tert-Butyl)-2-(3-chloro-4-fluorophenyl)-N5-(3,3-difluorocyclobutyl)-6,7-dihydropyrazolo[1,5-a]pyrazine-3,5(4H)-dicarboxamide]: the IC50 at CK1ε (read-out: CK1ε IC50 range) and on CK1δ (read-out: CK1δ IC50 range) was 0.01 to 10 nM throughout.
Consider `NC(=O)c1c(-c2ccc(F)c(Cl)c2)nn2c1CN(C(=O)NC1CC(F)(F)C1)CC2C(F)(F)F` (single isomer, unassigned) [Compound A125, 2-(3-Chloro-4-fluorophenyl)-N^5-(3,3-difluorocyclobutyl)-7-(trifluoromethyl)-6,7-dihydropyrazolo[1,5-a]pyrazine-3,5(4H)-dicarboxamide], for which the IC50 at CK1ε (read-out: CK1ε IC50 range) and at CK1δ (read-out: CK1δ IC50 range) was 10 to 100 nM in each case.
Consider `NC(=O)c1c(-c2ccc(F)c(Cl)c2)nn2c1CN(C(=O)NC1CC(F)(F)C1)CC2C(F)(F)F` (single isomer, unassigned) [Compound A126, 2-(3-Chloro-4-fluorophenyl)-N^5-(3,3-difluorocyclobutyl)-7-(trifluoromethyl)-6,7-dihydropyrazolo[1,5-a]pyrazine-3,5(4H)-dicarboxamide], for which the IC50 at CK1ε (read-out: CK1ε IC50 range) and on CK1δ (read-out: CK1δ IC50 range) was 0.01 to 10 nM throughout.
On to `CC(C)(C)NC(=O)N1Cc2c(C(N)=O)c(-c3ccc(F)c(Cl)c3)nn2C(C(F)(F)F)C1` (single isomer, unassigned) [Compound A127, N^5-(tert-Butyl)-2-(3-chloro-4-fluorophenyl)-7-(trifluoromethyl)-6,7-dihydropyrazolo[1,5-a]pyrazine-3,5(4H)-dicarboxamide], for which the results for the IC50 on CK1ε (read-out: CK1ε IC50 range) and on CK1δ (read-out: CK1δ IC50 range) were 10 to 100 nM and 100 to 2000 nM, respectively.
For `CC1CN(C(=O)NC(C)(C)C)Cc2c(C(N)=O)c(-c3cccc(Cl)c3)nn21` (stereo not drawn) [A8], in that order: 0.01 to 10 nM and 0.01 to 10 nM.
With `NC(=O)c1c(-c2cccc(Cl)c2)nn2c1CN(C(=O)NC1CC(F)(F)C1)CC21CC1` [A130], the IC50 on CK1ε (read-out: CK1ε IC50 range) and on CK1δ (read-out: CK1δ IC50 range) was 0.01 to 10 nM each time.
As for `CC(C)(C)NC(=O)N1CCn2nc(-c3ccc(F)cc3)c(C(N)=O)c2C1` [Compound 1], the IC50 is 90.3 nM at CK1ε (read-out: CK1ε), 10 to 100 nM on CK1ε (read-out: CK1ε IC50 range), 27.8 nM at CK1δ (read-out: CK1δ) and 10 to 100 nM at CK1δ (read-out: CK1δ IC50 range).
